# Legend:
# [1] = tested on: Abutilon theophrasti Medic.; assay: Bioassay of herbicidal activity in greenhouse (further screening); format: in vivo
# Summary of the method: (§1)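 Visual growth inhibition rating (0–100%; 100 = weeds dead or not emerged) after track-sprayer application of compounds formulated as emulsifiable concentrates. Sprays given 24 h post-sowing (pre-emergence) or at 2–3-leaf (grasses) / 2–4-leaf (broad-leaves) stage, greenhouse-grown plants.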
# [2] = tested on: Echinochloa crus-galli (L.) Beauv.; assay: as above; format: in vivo
# Summary of the method: as §1
# [3] = tested on: Setaria glauca (L.) Beauv.; assay: as above; format: in vivo
# Summary of the method: as §1
# Zinnia elegans Jacq. = assay: as above; format: in vivo
# Summary of the method: as §1
# [4] = tested on: broad-leaf weeds and grass weeds; assay: General screening of herbicidal activity in greenhouse; format: in vivo; conditions: 1000 g a.i./hm^2;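 also: 0 means no visible effect and 100 means all weeds dead or not emerged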
# Summary of the method: as §1
# [5] = tested on: Arthraxon hispidus (Thunb.) Makino; assay: Weed spectrum study in greenhouse; format: in vivo
# Excerpt: (§2) Seeds of monocotyledonous and dicotyledonous weeds were sown in nutrition soil in paper pot (7 cm diameter), covered with soil in 1 cm and grown in the greenhouse under good growth conditions (temperature, atmospheric humidity, water supply). The compounds of the present invention as emulsifiable concentrate, were applied in pre-emergence and post-emergence treatment by track sprayer (Engineer Research Ltd., pressure 1.95 kg/cm^2, volume 500 L/hm^2, track speed 1.48 km/h). Pre-emergence treatment was conducted after seeding 24 hours and post-emergence treatment was done when the respective weeds reached predetermined leaf stage (grass weed 2- to 3-leaf stage, broad-leaf weed 2- to 4-leaf stage), the state of growth of the respective weeds were visually observed to determine the growth inhibition rate (%) in accordance with the following evaluation standard.
# (§3) Growth inhibition rate (%): 0=no discernible action: 100=all weeds dead or not emerged.
# (§4) The method is as example 18.
# Cyperus difformis L. = assay: Weed spectrum study in greenhouse; format: in vivo
# Excerpt: as §2, §3, §4
# Cyperus glomeratus L. = assay: Weed spectrum study in greenhouse; format: in vivo
# Excerpt: as §2, with “([…]),” for “(grass weed 2- to 3-leaf stage, broad-leaf weed 2- to 4-leaf stage),”
# as §3, §4
# [6] = tested on: Digitaria sanguinalis (L.); assay: Weed spectrum study in greenhouse; format: in vivo
# Excerpt: as §2, with “([…],” for “(grass weed 2- to 3-leaf stage,”
# as §3, §4
# [7] = tested on: Amaranthus retroflexus L.; assay: Weed spectrum study in greenhouse; format: in vivo
# Excerpt: as §2, with “[…]),” for “broad-leaf weed 2- to 4-leaf stage),”
# as §3, §4
# grass weed = assay: Field trial, weed control in orchard (non-cultivated land); format: in vivo, Digitaria sanguinalis (L.) Scop.
# Experimental: (§5) The field trial was conducted in an orchard located at Liaoyang city, Liaoning province, China; the orchard planted mainly apple trees and almond trees, plum trees and pear trees as well, weeding control were conducted three times one year by application of paraquat. Weeds were distributed uniformity and moderate density, mainly of broad-leaf weeds including Conyza canadensis (L.)Cronq., Sonchus brachyotus DC., Polygonum aviculare L., Humulus scandens (Lour.) Merr., Ixeridium sonchifolium (Maxim.) Shih, Galium aparine L. var. tenerum Gren. et (Godr.) Rebb., Rumex japonicus Houtt. and Metaplexis japonica (Thunb.) Makino, partly of grass weed was Digitaria sanguinalis (L.) Scop., average height range was between 30 and 40 cm. sprayer was knapsack hand-operated sprayer(AGROLEX HD400) produced by AGROLEx PTE Ltd., spray volume was 675 L/hm^2, processing date was Jul. 3, 2015. On the 15th day after application, weeds were visually observed to determine the growth inhibition rate (%).
# broad-leaf weeds = assay: as above; format: in vivo
# Experimental: as §5
# weeds = assay: as above; format: in vivo
# Experimental: as §5
# [8] = pre-emergence, dose 600 g a.i./hm^2
# [9] = dose 60 g a.i./hm^2, 15th day after application
# [10] = dose 120 g a.i./hm^2, 15th day after application
# [11] = dose 180 g a.i./hm^2, 15th day after application
# [12] = dose 240 g a.i./hm^2, 15th day after application
# [13] = dose 300 g a.i./hm^2, 15th day after application
smiles,measurement,setting,value
CCOC(=O)C1(C)CC(c2cc(-n3c(=O)cc(C(F)(F)F)n(C)c3=O)c(F)cc2Cl)=NO1 (stereo not drawn) [Compound 6],"Growth inhibition rate, Post-emergence treatment, Abutilon theophrasti Medic.",[1]; dose 7.5 g a.i./hm^2,100%
same,"Growth inhibition rate, Post-emergence treatment, Abutilon theophrasti Medic.",[1]; dose 15 g a.i./hm^2,100%
same,"Growth inhibition rate, Post-emergence treatment, Abutilon theophrasti Medic.",[1]; dose 30.0 g a.i./hm^2,100%
same,"Growth inhibition rate, Post-emergence treatment, Abutilon theophrasti Medic.",[1]; dose 60.0 g a.i./hm^2,100%
same,"Growth inhibition rate, Post-emergence treatment, Abutilon theophrasti Medic.",[1]; dose 120.0 g a.i./hm^2,100%
same,"Growth inhibition rate, Post-emergence treatment, Abutilon theophrasti Medic.",[1]; dose 600 g a.i./hm^2,100%
same,"Growth inhibition rate, Pre-emergence treatment, Abutilon theophrasti Medic.",[1]; [8],100%
same,"Growth inhibition rate, Post-emergence treatment, Echinochloa crus-galli (L.) Beauv.",[2]; dose 7.5 g a.i./hm^2,70%
same,"Growth inhibition rate, Post-emergence treatment, Echinochloa crus-galli (L.) Beauv.",[2]; dose 15 g a.i./hm^2,98%
same,"Growth inhibition rate, Post-emergence treatment, Echinochloa crus-galli (L.) Beauv.",[2]; dose 30.0 g a.i./hm^2,98%
same,"Growth inhibition rate, Post-emergence treatment, Echinochloa crus-galli (L.) Beauv.",[2]; dose 60.0 g a.i./hm^2,100%
same,"Growth inhibition rate, Post-emergence treatment, Echinochloa crus-galli (L.) Beauv.",[2]; dose 120.0 g a.i./hm^2,100%
same,"Growth inhibition rate, Post-emergence treatment, Echinochloa crus-galli (L.) Beauv.",[2]; dose 600 g a.i./hm^2,100%
same,"Growth inhibition rate, Pre-emergence treatment, Echinochloa crus-galli (L.) Beauv.",[2]; [8],70%
same,"Growth inhibition rate, Post-emergence treatment, Setaria glauca (L.) Beauv.",[3]; dose 7.5 g a.i./hm^2,85%
same,"Growth inhibition rate, Post-emergence treatment, Setaria glauca (L.) Beauv.",[3]; dose 15 g a.i./hm^2,98%
same,"Growth inhibition rate, Post-emergence treatment, Setaria glauca (L.) Beauv.",[3]; dose 30.0 g a.i./hm^2,95%
same,"Growth inhibition rate, Post-emergence treatment, Setaria glauca (L.) Beauv.",[3]; dose 60.0 g a.i./hm^2,100%
same,"Growth inhibition rate, Post-emergence treatment, Setaria glauca (L.) Beauv.",[3]; dose 120.0 g a.i./hm^2,100%
same,"Growth inhibition rate, Post-emergence treatment, Setaria glauca (L.) Beauv.",[3]; dose 600 g a.i./hm^2,100%
same,"Growth inhibition rate, Pre-emergence treatment, Setaria glauca (L.) Beauv.",[3]; [8],55%
same,"Growth inhibition rate, Post-emergence treatment, Zinnia elegans Jacq.",Zinnia elegans Jacq.; dose 7.5 g a.i./hm^2,95%
same,"Growth inhibition rate, Post-emergence treatment, Zinnia elegans Jacq.",Zinnia elegans Jacq.; dose 15 g a.i./hm^2,98%
same,"Growth inhibition rate, Post-emergence treatment, Zinnia elegans Jacq.",Zinnia elegans Jacq.; dose 30.0 g a.i./hm^2,100%
same,"Growth inhibition rate, Post-emergence treatment, Zinnia elegans Jacq.",Zinnia elegans Jacq.; dose 60.0 g a.i./hm^2,100%
same,"Growth inhibition rate, Post-emergence treatment, Zinnia elegans Jacq.",Zinnia elegans Jacq.; dose 120.0 g a.i./hm^2,100%
same,"Growth inhibition rate, Post-emergence treatment, Zinnia elegans Jacq.",Zinnia elegans Jacq.; dose 600 g a.i./hm^2,100%
same,"Growth inhibition rate, Pre-emergence treatment, Zinnia elegans Jacq.",Zinnia elegans Jacq.; [8],55%
same,pre-emergence and post-emergence herbicidal activity against broad-leaf weeds and grass weeds,[4],good
same,"Growth inhibition rate, Arthraxon hispidus (Thunb.) Makino (3-leaf stage)",[5]; dose 7.5 g a.i./hm^2,60%
same,"Growth inhibition rate, Arthraxon hispidus (Thunb.) Makino (3-leaf stage)",[5]; dose 15 g a.i./hm^2,85%
same,"Growth inhibition rate, Arthraxon hispidus (Thunb.) Makino (3-leaf stage)",[5]; dose 30 g a.i./hm^2,90%
same,"Growth inhibition rate, Arthraxon hispidus (Thunb.) Makino (3-leaf stage)",[5]; dose 60 g a.i./hm^2,100%
same,"Growth inhibition rate, Arthraxon hispidus (Thunb.) Makino (3-leaf stage)",[5]; dose 120 g a.i./hm^2,100%
same,"Growth inhibition rate, Cyperus difformis L. (4,5-leaf stage)",Cyperus difformis L.; dose 7.5 g a.i./hm^2,30%
same,"Growth inhibition rate, Cyperus difformis L. (4,5-leaf stage)",Cyperus difformis L.; dose 15 g a.i./hm^2,60%
same,"Growth inhibition rate, Cyperus difformis L. (4,5-leaf stage)",Cyperus difformis L.; dose 30 g a.i./hm^2,90%
same,"Growth inhibition rate, Cyperus difformis L. (4,5-leaf stage)",Cyperus difformis L.; dose 60 g a.i./hm^2,95%
same,"Growth inhibition rate, Cyperus difformis L. (4,5-leaf stage)",Cyperus difformis L.; dose 120 g a.i./hm^2,100%
same,"Growth inhibition rate, Cyperus glomeratus L. (5-leaf stage)",Cyperus glomeratus L.; dose 7.5 g a.i./hm^2,80%
same,"Growth inhibition rate, Cyperus glomeratus L. (5-leaf stage)",Cyperus glomeratus L.; dose 15 g a.i./hm^2,80%
same,"Growth inhibition rate, Cyperus glomeratus L. (5-leaf stage)",Cyperus glomeratus L.; dose 30 g a.i./hm^2,90%
same,"Growth inhibition rate, Cyperus glomeratus L. (5-leaf stage)",Cyperus glomeratus L.; dose 60 g a.i./hm^2,100%
same,"Growth inhibition rate, Cyperus glomeratus L. (5-leaf stage)",Cyperus glomeratus L.; dose 120 g a.i./hm^2,100%
same,"Growth inhibition rate, Digitaria sanguinalis (L.) (4,5-leaf stage)",[6]; dose 7.5 g a.i./hm^2,80%
same,"Growth inhibition rate, Digitaria sanguinalis (L.) (4,5-leaf stage)",[6]; dose 15 g a.i./hm^2,90%
same,"Growth inhibition rate, Digitaria sanguinalis (L.) (4,5-leaf stage)",[6]; dose 30 g a.i./hm^2,100%
same,"Growth inhibition rate, Digitaria sanguinalis (L.) (4,5-leaf stage)",[6]; dose 60 g a.i./hm^2,100%
same,"Growth inhibition rate, Digitaria sanguinalis (L.) (4,5-leaf stage)",[6]; dose 120 g a.i./hm^2,100%
same,"Growth inhibition rate, Amaranthus retroflexus L. (height 10-15 cm)",[7]; dose 7.5 g a.i./hm^2,90%
same,"Growth inhibition rate, Amaranthus retroflexus L. (height 10-15 cm)",[7]; dose 15 g a.i./hm^2,98%
same,"Growth inhibition rate, Amaranthus retroflexus L. (height 10-15 cm)",[7]; dose 30 g a.i./hm^2,100%
same,"Growth inhibition rate, Amaranthus retroflexus L. (height 10-15 cm)",[7]; dose 60 g a.i./hm^2,100%
same,"Growth inhibition rate, Amaranthus retroflexus L. (height 10-15 cm)",[7]; dose 120 g a.i./hm^2,100%
same,Growth inhibition rate (%) of grass weed,grass weed; [9],61.7%
same,Growth inhibition rate (%) of grass weed,grass weed; [10],71.7%
same,Growth inhibition rate (%) of grass weed,grass weed; [11],83.3%
same,Growth inhibition rate (%) of grass weed,grass weed; [12],88.3%
same,Growth inhibition rate (%) of grass weed,grass weed; [13],94.3%
same,Growth inhibition rate (%) of broad-leaf weeds,broad-leaf weeds; [9],85.0%
same,Growth inhibition rate (%) of broad-leaf weeds,broad-leaf weeds; [10],93.3%
same,Growth inhibition rate (%) of broad-leaf weeds,broad-leaf weeds; [11],94.3%
same,Growth inhibition rate (%) of broad-leaf weeds,broad-leaf weeds; [12],97.0%
same,Growth inhibition rate (%) of broad-leaf weeds,broad-leaf weeds; [13],92.7%
same,Total growth inhibition rate (%) of weeds,weeds; [9],81.7%
same,Total growth inhibition rate (%) of weeds,weeds; [10],91.7%
same,Total growth inhibition rate (%) of weeds,weeds; [11],91.7%
same,Total growth inhibition rate (%) of weeds,weeds; [12],93.3%
same,Total growth inhibition rate (%) of weeds,weeds; [13],98.7%

# Source: patent publication US10550111B2, “Pyrimidine urea compound containing isoxazolines and use thereof” (SHENYANG SINOCHEM AGROCHEMICALS R&D CO., LTD, priority 2014, dated 2020)
